pIC50: −log10 of the molar value.
Molecular target: Human TASK-1 channels (Homo sapiens (Human), UniProt O14649)
Assay: Determination of the activity on the TASK-1 channel in Xenopus oocytes (two-microelectrode voltage clamp)
Type: cell-based
Details: compound concentration 5 μM
Procedure, shortened: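 Current during 500 ms pulses to 40 mV from a −90 mV hold was recorded in oocytes expressing human TASK-1 for two days after cRNA injection. Compounds were added cumulatively to the ND96 bath (pH 7.4, room temperature). IC50 came from dose-response fitting of inhibition relative to pre-compound current.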

Chain of Human TASK-1 channels (O14649 whole entry): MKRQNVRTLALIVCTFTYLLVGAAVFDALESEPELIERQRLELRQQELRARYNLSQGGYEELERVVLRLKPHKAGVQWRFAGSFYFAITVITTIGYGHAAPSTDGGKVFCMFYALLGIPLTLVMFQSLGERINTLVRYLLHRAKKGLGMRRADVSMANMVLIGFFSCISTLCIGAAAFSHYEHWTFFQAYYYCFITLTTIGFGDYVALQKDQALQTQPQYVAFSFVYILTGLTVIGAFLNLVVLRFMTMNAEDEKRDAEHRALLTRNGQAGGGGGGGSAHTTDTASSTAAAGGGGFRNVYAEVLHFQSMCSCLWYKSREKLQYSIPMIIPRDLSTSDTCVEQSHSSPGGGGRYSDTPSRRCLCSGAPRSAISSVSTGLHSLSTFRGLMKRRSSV

Structure (SMILES) | inhibition at 5 µM [%]
CC[C@@H](NC(=O)c1cc(C(=O)N2CCC[C@@H]2C)n2c1CCCC2)c1ccc2c(c1)COC2=O [16lz, 3-((S)-2-Methyl-pyrrolidine-1-carbonyl)-5,6,7,8-tetrahydro-indolizine-1-carboxylic acid [(R)-1-(1-oxo-1,3-dihydro-isobenzofuran-5-yl)-propyl]-amide] | 76
CC[C@@H](NC(=O)c1cc(C(=O)N2CCC[C@@H]2C)n2c1COCC2)c1ncccc1OC [16ao, 6-((S)-2-Methyl-pyrrolidine-1-carbonyl)-3,4-dihydro-1H-pyrrolo[2,1-c][1,4]oxazine-8-carboxylic acid [(R)-1-(3-methoxy-pyridin-2-yl)-propyl]-amide] | 83
CC[C@@H](NC(=O)c1cc(C(=O)NC(C)c2nnnn2CC)n2c1COCC2)c1ccccc1 (stereo partly drawn) [16rr, 3,4-Dihydro-1H-pyrrolo[2,1-c][1,4]oxazine-6,8-dicarboxylic acid 6-{[1-(1-ethyl-1H-tetrazol-5-yl)-ethyl]-amide} 8-[((R)-1-phenyl-propyl)-amide]] | 71
CC[C@@H](NC(=O)c1cc(C(=O)N2CCC[C@@H]2C)c2n1CCOC2)c1ccc(C#N)cc1 [16nl, 8-((S)-2-Methyl-pyrrolidine-1-carbonyl)-3,4-dihydro-1H-pyrrolo[2,1-c][1,4]oxazine-6-carboxylic acid [(R)-1-(4-cyano-phenyl)-propyl]-amide] | 70

More lines, now with the values ahead:

inhibition at 5 µM [%] | Structure (SMILES)
62 | CC[C@@H](NC(=O)c1cc(C(=O)N2CCC[C@@H]2C)c2n1CCOC2)c1ccc(C(F)(F)F)nc1 [16nk, 8-((S)-2-Methyl-pyrrolidine-1-carbonyl)-3,4-dihydro-1H-pyrrolo[2,1-c][1,4]oxazine-6-carboxylic acid [(R)-1-(6-trifluoromethyl-pyridin-3-yl)-propyl]-amide]
71 | CC(C)[C@@H](NC(=O)c1cc(C(=O)N2CCC[C@@H]2C)c2n1CCOC2)c1ccc(C(F)(F)F)nc1 [16po, 8-((S)-2-Methyl-pyrrolidine-1-carbonyl)-3,4-dihydro-1H-pyrrolo[2,1-c][1,4]oxazine-6-carboxylic acid [(R)-2-methyl-1-(6-trifluoromethyl-pyridin-3-yl)-propyl]-amide]
81 | C[C@H]1CCCN1C(=O)c1cc(C(=O)NCc2ccccc2Cl)c2n1CCOC2 [16an, 6-((S)-2-Methyl-pyrrolidine-1-carbonyl)-3,4-dihydro-1H-pyrrolo[2,1-c][1,4]oxazine-8-carboxylic acid 2-chloro-benzylamide]
60 | CC[C@@H](NC(=O)c1cc(C(=O)N2CCC[C@@H]2C)n2c1COCC2)c1ccc(SC)nc1 [16ra, 6-((S)-2-Methyl-pyrrolidine-1-carbonyl)-3,4-dihydro-1H-pyrrolo[2,1-c][1,4]oxazine-8-carboxylic acid [(R)-1-(6-methylsulfanyl-pyridin-3-yl)-propyl]-amide]
80 | CC[C@H](NC(=O)c1cc(C(=O)N2CCC[C@@H]2C)n2c1COCC2)c1cnc(C(F)(F)F)cc1Cl [16bs, 6-((S)-2-Methyl-pyrrolidine-1-carbonyl)-3,4-dihydro-1H-pyrrolo[2,1-c][1,4]oxazine-8-carboxylic acid [(S)-1-(4-chloro-6-trifluoromethyl-pyridin-3-yl)-propyl]-amide]

Same assay, conditions: compound concentration 10 μM (footnote a)

inhibition at 10 µM [%] | Structure (SMILES)
70 | CC[C@@H](NC(=O)c1cc(C(=O)N(C)[C@@H](C)C(=O)N(C)C)n2c1COCC2)c1ccccc1 [16rk, 3,4-dihydro-1H-pyrrolo[2,1-c][1,4]oxazine-6,8-dicarboxylic acid 6-[((S)-1-dimethylcarbamoyl-ethyl)methyl-amide] 8-[((R)-1-phenyl-propyl)-amide]]

Same assay, conditions: human TASK-1 expressed in Xenopus oocytes, room temperature; read-out: IC50 value for TASK-1 inhibition

Structure (SMILES) | pIC50
CC[C@@H](NC(=O)c1cc(C(=O)NCc2ccccc2C#N)n2c1COCC2)c1ccccc1 [16gy, 3,4-Dihydro-1H-pyrrolo[2,1-c][1,4]oxazine-6,8-dicarboxylic acid 6-(2-cyano-benzylamide) 8-[((R)-1-phenyl-propyl)-amide]] | 6.49
CC[C@@H](NC(=O)c1cc(C(=O)N2CCC[C@@H]2C)n2c1COCC2)c1ccc(Cl)s1 [16rb, 6-((S)-2-Methyl-pyrrolidine-1-carbonyl)-3,4-dihydro-1H-pyrrolo[2,1-c][1,4]oxazine-8-carboxylic acid [(R)-1-(5-chloro-thiophen-2-yl)-propyl]-amide] | 6.64
CC[C@@H](NC(=O)c1cc(C(=O)N2CCC[C@@H]2C(C)C)c2n1CCOC2)c1ccccc1 [16kl, 8-((R)-2-Isopropyl-pyrrolidine-1-carbonyl)-3,4-dihydro-1H-pyrrolo[2,1-c][1,4]oxazine-6-carboxylic acid ((R)-1-phenyl-propyl)-amide] | 6.68
CC[C@@H](NC(=O)c1cc(C(=O)NCC(CC2CC2)c2ccccc2)n2c1CCCC2)c1ccccc1 (stereo partly drawn) [16na, 5,6,7,8-Tetrahydro-indolizine-1,3-dicarboxylic acid 3-[(3-cyclopropyl-2-phenyl-propyl)-amide] 1-[((R)-1-phenyl-propyl)-amide]] | 5.77
CC[C@@H](NC(=O)c1c(Br)c(C(=O)N2CCC[C@@H]2C)n2c1COCC2)c1ccc(C(F)(F)F)nc1 [16ru, 7-Bromo-6-((S)-2-methyl-pyrrolidine-1-carbonyl)-3,4-dihydro-1H-pyrrolo[2,1-c][1,4]oxazine-8-carboxylic acid [(R)-1-(6-trifluoromethyl-pyridin-3-yl)-propyl]-amide] | 6.09
CC[C@@H](NC(=O)c1cc(C(=O)N2CCC[C@@H]2C)n2c1COCC2)c1ccc(C#N)nc1 [16aa, 6-((S)-2-Methyl-pyrrolidine-1-carbonyl)-3,4-dihydro-1H-pyrrolo[2,1-c][1,4]oxazine-8-carboxylic acid [(R)-1-(6-cyano-pyridin-3-yl)-propyl]-amide] | 5.62
CC[C@@H](NC(=O)c1cc(C(=O)N2CCC[C@@H]2C)n2c1COCC2)c1cnc(OC)c(C(F)(F)F)c1 [16cn, 6-((S)-2-Methyl-pyrrolidine-1-carbonyl)-3,4-dihydro-1H-pyrrolo[2,1-c][1,4]oxazine-8-carboxylic acid [(R)-1-(6-methoxy-5-trifluoromethyl-pyridin-3-yl)-propyl]-amide] | 7.00

Other lines, results leading:

pIC50 | Structure (SMILES)
6.82 | CCC[C@@H](NC(=O)c1cc(C(=O)N2CCC[C@@H]2C)n2c1COCC2)c1ccc(C(F)(F)F)nc1 [16bi, 6-((S)-2-Methyl-pyrrolidine-1-carbonyl)-3,4-dihydro-1H-pyrrolo[2,1-c][1,4]oxazine-8-carboxylic acid [(R)-1-(6-trifluoromethyl-pyridin-3-yl)-butyl]-amide]
6.26 | CC[C@@H](NC(=O)c1cc(C(=O)N2CCC[C@@H]2C)n2c1COCC2)c1cccc(C#N)c1 [16aj, 6-((S)-2-Methyl-pyrrolidine-1-carbonyl)-3,4-dihydro-1H-pyrrolo[2,1-c][1,4]oxazine-8-carboxylic acid [(R)-1-(3-cyano-phenyl)-propyl]-amide]
5.35 | CC[C@@H](NC(=O)c1cc(C(=O)N(C)[C@@H](C)C(=O)NC(C)C)n2c1COCC2)c1ccccc1 [16rl]
6.46 | CC[C@@H](NC(=O)c1cc(C(=O)NCc2ncco2)n2c1COCC2)c1ccccc1 [16ha, 3,4-Dihydro-1H-pyrrolo[2,1-c][1,4]oxazine-6,8-dicarboxylic acid 6-[(oxazol-2-ylmethyl)-amide] 8-[((R)-1-phenyl-propyl)-amide]]
6.08 | CC[C@@H](NC(=O)c1cc(C(=O)N2CC[C@@H](OC)C2)n2c1CCCC2)c1ccccc1 [16mg, 3-((R)-3-Methoxy-pyrrolidine-1-carbonyl)-5,6,7,8-tetrahydro-indolizine-1-carboxylic acid ((R)-1-phenyl-propyl)-amide]
6.66 | CC[C@@H](NC(=O)c1cc(C(=O)Nc2cc(C(F)(F)F)ccc2Cl)c2n1CCOC2)c1ccccc1 [16jx, 3,4-Dihydro-1H-pyrrolo[2,1-c][1,4]oxazine-6,8-dicarboxylic acid 8-[(2-chloro-5-trifluoromethyl-phenyl)-amide] 6-[((R)-1-phenyl-propyl)-amide]]
5.89 | CC[C@@H](NC(=O)c1cc(C(=O)N2CCC[C@@H]2C)n2c1COCC2)c1ccc(C#N)cc1 [16ak, 6-((S)-2-Methyl-pyrrolidine-1-carbonyl)-3,4-dihydro-1H-pyrrolo[2,1-c][1,4]oxazine-8-carboxylic acid [(R)-1-(4-cyano-phenyl)-propyl]-amide]
5.92 | CC[C@@H](NC(=O)c1cc(C(=O)N2CCC[C@@H]2C)n2c1COCC2)c1ccncc1Cl [16bw, 6-((S)-2-Methyl-pyrrolidine-1-carbonyl)-3,4-dihydro-1H-pyrrolo[2,1-c][1,4]oxazine-8-carboxylic acid [(R)-1-(3-chloro-pyridin-4-yl)-propyl]-amide]
6.77 | CC[C@@H](NC(=O)c1cc(C(=O)NC(C)c2cnccn2)n2c1COCC2)c1ccccc1 (stereo partly drawn) [16hl, 3,4-Dihydro-1H-pyrrolo[2,1-c][1,4]oxazine-6,8-dicarboxylic acid 8-[((R)-1-phenyl-propyl)-amide] 6-[(1-pyrazin-2-yl-ethyl)-amide]]
7.48 | CC[C@@H](NC(=O)c1cc(C(=O)N[C@H](C)c2ccc(F)cc2)n2c1CSC2)c1ccccc1 [16ky, 1H-Pyrrolo[1,2-c]thiazole-5,7-dicarboxylic acid 5-{[(R)-1-(4-fluoro-phenyl)-ethyl]-amide} 7-[((R)-1-phenyl-propyl)-amide]]
5.51 | CC[C@@H](NC(=O)c1cc(C(=O)NCc2ccc(F)cc2F)c2n1CCOC2)c1cnccn1 [16ns, 3,4-Dihydro-1H-pyrrolo[2,1-c][1,4]oxazine-6,8-dicarboxylic acid 8-(2,4-difluoro-benzylamide) 6-[((R)-1-pyrazin-2-yl-propyl)-amide]]
7.10 | CC[C@@H](NC(=O)c1cc(C(=O)NCc2nccs2)c2n1CCCC2)c1ccccc1 [16md, 5,6,7,8-Tetrahydro-indolizine-1,3-dicarboxylic acid 3-[((R)-1-phenyl-propyl)-amide] 1-[(thiazol-2-ylmethyl)-amide]]

From patent publication US9284333B2, “Fused pyrroledicarboxamides and their use as pharmaceuticals” (SANOFI, priority 2012, dated 2016)
